Test results: ChEMBL document CHEMBL1137628, “Bactericidal activity of extended 9-glycyl-amido-minocyclines” (2007)
≈ marks a conversion by molar mass, not a printed value.

system: Staphylococcus aureus; assay: Antibacterial activity against Staphylococcus aureus Rosenbach after 14 hrs; format: functional

MIC [µg/mL] | SMILES
2 (≈ 4.23 µM) | CN(C)c1cc(N)c(O)c2c1C[C@H]1C[C@H]3[C@H](N(C)C)C(O)=C(C(N)=O)C(=O)[C@@]3(O)C(O)=C1C2=O
2 (≈ 3.78 µM) | CN(C)c1cc(NC(=O)CN)c(O)c2c1C[C@H]1C[C@H]3[C@H](N(C)C)C(O)=C(C(N)=O)C(=O)[C@@]3(O)C(O)=C1C2=O
2 (≈ 3.67 µM) | CN(C)c1cc(NC(=O)CNN)c(O)c2c1C[C@H]1C[C@H]3[C@H](N(C)C)C(O)=C(C(N)=O)C(=O)[C@@]3(O)C(O)=C1C2=O

SMILES | MIC [µg/mL]
CN(C)c1ccc(O)c2c1C[C@H]1C[C@H]3[C@H](N(C)C)C(O)=C(C(N)=O)C(=O)[C@@]3(O)C(O)=C1C2=O [MINOCYCLINE] | 0.125 (≈ 0.273 µM)
